Measurements taken from US20250064778A1, “GRANULES COMPRISING PROGERININ, AND SACHETS USING SAME” (PRG S&TECH INC., priority 2022, published 2025).

Assays:
[1] = Excipient compatibility of progerinin; assay type: physicochemical; conditions: mixed with HPMC E3, TPGS and potassium sorbate 1:10, 40° C./75% RH, 2 weeks
[2] = system: progerin; conditions: cited from earlier work
[3] = system: progeria-induced animal model; conditions: cited from earlier work
[4] = Stability of spray-dried solid dispersions under storage for 2 weeks; assay type: physicochemical; conditions: for Appearance / HPLC results Purity / XRPD: open
[5] = cited from earlier work

CC1(C)Oc2cc3oc(=O)ccc3cc2C[C@@H]1OC/C=C/c1ccccc1 [progerinin, (7S)-(+)-8,8-dimethyl-7-(3-phenylallyloxy)-7,8-dihydro-6H-pyrano[3,2-g]chromen-2-one]
compatibility with excipients (effect on the drug) [1]: had no effect on the drug
suppressing progerin expression [2]: excellent effects of suppressing progerin expression
survival period [3]: prolonging a survival period
Appearance ([4]; 25° C./60% RH, after 1 week): White
HPLC results Purity ([4]; 25° C./60% RH, after 1 week): 99.85%
XRPD ([4]; 25° C./60% RH, after 1 week): Unchanged
HPLC results Purity ([4]; 25° C./60% RH, after 2 weeks): 99.85%
XRPD ([4]; 25° C./60% RH, after 2 weeks): Unchanged
Appearance ([4]; 40° C./75% RH, after 1 week): White
HPLC results Purity ([4]; 40° C./75% RH, after 1 week): 99.85%
XRPD ([4]; 40° C./75% RH, after 1 week): Unchanged
HPLC results Purity ([4]; 40° C./75% RH, after 2 weeks): 99.85%
XRPD ([4]; 40° C./75% RH, after 2 weeks): Unchanged
Initial purity ([4]; initial): 99.85%
solubility in aqueous media ([5]; BCS criteria): low solubility
solubility in water [5]: close to zero
